Patent publication US20250064062A1, “METHOD FOR INCREASING THE EFFICACY OF A HERBICIDE” (BASF SE, priority 2021, published 2025)

How the values were obtained:
Format in all cases: in vivo
Settings in all cases: Dicamba 560 g ae/ha alone; Induce 0.25% v/v
[1] = system: waterhemp (Amaranthus tuberculatus, AMATA); assay: Greenhouse trial: dicamba (Engenia) with copolymer CP1, postemergence weed control
[2] = system: velvetleaf (Abutilon theophrasti, ABUTH); assay: as above
[3] = system: common lambsquarters (Chenopodium album; OCHEAL); assay: as above
[4] = system: AMATA, ABUTH, CHEAL; assay: Greenhouse trial: dicamba with copolymer CP1, mean over the three weed species

**Q.** How did the “% Control (21 Days after Treatment) AMATA” value [1] turn out when `COc1c(Cl)ccc(Cl)c1C(=O)O` [Dicamba, dicamba] was run?
**A.** 83%

**Q.** And the “% Control (21 Days after Treatment) ABUTH” value [2]?
**A.** 53%

**Q.** What about the “% Control (21 Days after Treatment) CHEAL” value [3] of the same molecule?
**A.** 86%

**Q.** What about the “% Control (21 Days after Treatment) Mean” value [4] of the same molecule?
**A.** 74%
